Laboratory results taken from patent US20140349945A1, “PEG-AMINO ACID-OLIGOPEPTIDE-IRINOTECAN DRUG CONJUGATES AND THE PHARMACEUTICAL COMPOSITIONS” (JENKEM TECHNOLOGY CO., LTD. (BEIJING), priority 2011, published 2014).
Marks after values point to notes of the source that are not given here.

Key:
[1] = system: human colon cancer cells HCT-116; assay: Inhibitory effect on transplanted tumors of human colon cancer cells HCT-116 in nude mice; conditions: for Weight At the beginning / Weight At lats: HCT-116 tumor-bearing nude mice; for Weight At the beginning: baseline; for Weight At lats: end of experiment
Source text: BALB/cA nude mice (male, 4-6 weeks old, weighed 19±2 g) were provided by the Shanghai Institute of Materia Medica, Chinese Academy of Sciences. […] Animal numbers of each group: 12 mice in negative control group and 6 mice in treatment group.
5×10^6 cells were subcutaneously inoculated in the right armpit of each nude mouse. The transplanted tumors were transferred in nude mice for two generations before utilization.
(§1) Vigorous tumor tissues were cut into pieces of about 1.5 mm3 and then subcutaneously inoculated to the right armpit nude mice under sterile conditions. The diameters of the subcutaneous transplanted tumors were measured using a vernier caliper. The animals were randomly grouped when the tumors grew to 100-200 mm3.
(§2) After the administration, the animals were observed consecutively for one week. During the whole experiment, diameters of the transplanted tumors were measured and the animals were weighed two times a week. The tumor volume (TV) was calculated as follows: TV=½×a×b^2, wherein, a and b represented length and width respectively. According to the results of measurements, the relative tumor volumes (RTV) were calculated as follows: RTV=Vt/V0. Wherein, V0 were the volumes measured at administration after caging (i.e. d0), Vt were the tumor volumes of every measurements.

[2] = system: human colon cancer cells HT-29; assay: Inhibitory effect on transplanted tumors of human colon cancer cells HT-29 in nude mice; conditions: for Weight At the beginning / Weight At lats: HT-29 tumor-bearing nude mice; for Weight At the beginning: baseline; for Weight At lats: end of experiment
Source text: (§3) BALB/cA nude mice (male, 5-6 weeks old, weighed 18±2 g) were provided by the Shanghai Institute of Materia Medica, Chinese Academy of Sciences. […] Animal numbers of each group: 12 mice in negative control group and 6 mice in treatment group.
Human colon tumor cell strains HT-29 were purchased from ATCC. 5×10^6 cells were subcutaneously inoculated in the right armpit of each nude mouse. The transplanted tumors were transferred in nude mice for two generations before utilization.
as §1, with “mm^3” for “mm3”, “mm^3.” for “mm3.”
as §2

[3] = system: human lung cancer cells A549; assay: Inhibitory effect on transplanted tumors of human lung cancer cells A549 in nude mice; conditions: for Weight At the beginning: A549 tumor-bearing nude mice, baseline
Source text: as §3
Human lung tumor cell strains A549 were purchased from ATCC. 5×10^6 cells were subcutaneously inoculated in the right armpit of each nude mouse. The transplanted tumors were transferred in nude mice for two generations before utilization.
as §1, §2

[4] = system: human ovarian cancer cells SKOV-3; assay: Inhibitory effect on transplanted tumor of human ovarian cancer cells SKOV-3 in nude mice; conditions: for TV (mean ± SD) d 28 / number of animals with tumor regression: d 28; for number of animals with tumor regression: 6 mice per group; for Weight At the beginning / Weight At lats: SKOV-3 tumor-bearing nude mice; for Weight At the beginning: baseline; for Weight At lats: end of experiment
Source text: as §3
Human […] tumor cell strains SKOV-3 were purchased from ATCC. 5×10^6 cells were subcutaneously inoculated in the right armpit of each nude mouse. The transplanted tumors were transferred in nude mice for two generations before utilization.
as §1, §2

[5] = system: human colon cancer cells SW-620; assay: Inhibitory effect on transplanted tumor of human colon cancer cells SW-620 in nude mice; conditions: for RTV mean ± SD) / TV (mean ± SD) d 28 / number of animals with tumor regression: SW-620, d 28; for number of animals with tumor regression: 6 mice per group; for Weight At the beginning / Weight At last: SW-620 tumor-bearing nude mice; for Weight At the beginning: baseline; for Weight At last: end of experiment
Source text: as §3
Human […] tumor cell strains SW-620 were purchased from ATCC. 5×10^6 cells were subcutaneously inoculated in the right armpit of each nude mouse. The transplanted tumors were transferred in nude mice for two generations before utilization.
as §2, with “Vigorous tumor tissues were cut into pieces of about 1.5 mm3 and then subcutaneously inoculated to the right armpit nude mice under sterile conditions. The diameters of the subcutaneous transplanted tumors were measured using a vernier caliper. The animals were randomly grouped when the tumors grew to 100-200 mm3. […] After” for “After”

Weight At the beginning ([1]; 15 mg/kg, iv q3w × 3w): 19.1 g | Weight At lats ([1]; 15 mg/kg, iv q3w × 3w): 16.6 g | Weight At the beginning ([1]; 45 mg/kg, iv qw × 3w): 19.2 g | Weight At lats ([1]; 45 mg/kg, iv qw × 3w): 15.1 g | Weight At the beginning ([2]; 15 mg/kg, iv q3w × 3w): 18.2 g | Weight At lats ([2]; 15 mg/kg, iv q3w × 3w): 16.0 g | Weight At the beginning ([2]; 45 mg/kg, iv qw × 3w): 18.6 g | Weight At lats ([2]; 45 mg/kg, iv qw × 3w): 16.2 g | Weight At the beginning ([3]; 15 mg/kg, iv q3w × 3w): 18.1 g | Weight At the beginning ([3]; 45 mg/kg, iv qw × 3w): 18.4 g | Weight At the beginning ([4]; 15 mg/kg, iv q3w × 3w): 18.9 g | Weight At lats ([4]; 15 mg/kg, iv q3w × 3w): 18.0 g | Weight At the beginning ([4]; 45 mg/kg, iv qw × 3w): 19.7 g | Weight At lats ([4]; 45 mg/kg, iv qw × 3w): 18.4 g | Weight At the beginning ([5]; 15 mg/kg, iv q3w × 3w): 19.7 g | Weight At last ([5]; 15 mg/kg, iv q3w × 3w): 24.2 g | Weight At the beginning ([5]; 45 mg/kg, iv qw × 3w): 18.8 g | Weight At last ([5]; 45 mg/kg, iv qw × 3w): 21.8 g
SMILES: CCc1c2c(nc3ccc(OC(=O)N4CCC(N5CCCCC5)CC4)cc13)-c1cc3c(c(=O)n1C2)COC(=O)[C@]3(O)CC [CPT-11, Irinotecan]
TV (mean ± SD) d 28 ([1]; 15 mg/kg, iv q3w × 3w, HCT-116): 322 ± 37 mm^3 | body weight change during the whole experiment (in words) ([1]; 45 mg/kg group, compared with solvent control group, HCT-116): slightly higher weight loss | TV (mean ± SD) d 28 ([1]; 45 mg/kg, iv qw × 3w, HCT-116): 512 ± 99 mm^3 | body weight change during the whole experiment (in words) ([2]; two groups treated with different doses (15 and 45 mg/kg), HT-29): underwent weight loss | TV (mean ± SD) d 28 ([3]; 15 mg/kg, iv q3w × 3w, A549, d 28): 831 ± 305 mm^3 | RTV mean ± SD) ([3]; 45 mg/kg, iv qw × 3w, A549, d 28): 9.87 ± 4.87 ^ | TV (mean ± SD) d 28 ([4]; 15 mg/kg, iv q3w × 3w, SKOV-3): 924 ± 443 mm^3 | number of animals with tumor regression ([4]; 15 mg/kg, iv q3w × 3w, SKOV-3): 0 | TV (mean ± SD) d 28 ([4]; 45 mg/kg, iv qw × 3w, SKOV-3): 1753 ± 878 mm^3 | number of animals with tumor regression ([4]; 45 mg/kg, iv qw × 3w, SKOV-3): 0 | body weight change during the whole experiment (in words) ([4]; CPT-11 both dose groups, CPT-1 45 mg/kg, SKOV-3): slight weight loss | RTV mean ± SD) ([5]; 15 mg/kg, iv q3w × 3w): 0.02 ± 0.02**^, | TV (mean ± SD) d 28 ([5]; 15 mg/kg, iv q3w × 3w): 2.09 ± 1.51 mm^3 | number of animals with tumor regression ([5]; 15 mg/kg, iv q3w × 3w): 0 | RTV mean ± SD) ([5]; 45 mg/kg, iv qw × 3w): 6.60 ± 1.56 | TV (mean ± SD) d 28 ([5]; 45 mg/kg, iv qw × 3w): 877 ± 324 mm^3 | number of animals with tumor regression ([5]; 45 mg/kg, iv qw × 3w): 0
